Reference: PMC7747594, “Protease-activated receptor-2 ligands reveal orthosteric and allosteric mechanisms of receptor inhibition” (Communications Biology, 2020)
Where “and” joins values, the source holds several entries; their conditions need not be identical. Equal entries are not always repeated. Ends that are not written are not given here. Peptide text beside a SMILES is read from it.

Experiments:
[1] = biological target: human PAR2 on Flp-In CHO-hPAR2 cells (human) (UniProt P55085); experiment: time-resolved fluorescence competition binding on cells (Eu-tagged ligand, DELFIA); CHO-hPAR2 cells in 384-well plates, blocked with 2% BSA; Eu-tagged-2f-LIGRLO(dtpa)-NH2 300 nM together with competitor for 15 min; washed; DELFIA Enhancement Solution
[2] = biological target: T1, beta-tryptase (uniprot P20231) (Homo sapiens, UniProt P20231); experiment: Tryptase enzyme activity assay; assay type: biochemical; settings: 10 µM, n=1
T1 construct: made in house; host or cells: Pichia pastoris
Method: Tryptase Enzyme Activity Assay. The tryptase assay was carried out using beta-tryptase (uniprot P20231) produced in Pichia pastoris and using Tos-Gly-Pro-Lys-pNA as substrate (25 mM stock in ethanol) in 100 mM Tris pH 8.0, 100 mM NaCl, 10% glycerol, 0.5 mg mL-1 BSA, 0.1% DDM. Substrate (250 µM) was pre-incubated with test compound (10 µM) in assay buffer (200 ul) in clear bottom 96 well Greiner plates at room temperature. The re action was started by the addition of tryptase to a final concentration of 4.7 nM. Co nversion was recorded in a plate reader by monitoring the increase of absorption at λ = 405 nm over time. Activity was determined by linear fit of initial rate.

hPAR2 [3] = biological target: T2, hPAR2 (Homo sapiens, UniProt P55085); experiment: Ca^2+ flux assay, agonist mode, 1321N1-hPAR2 cells; assay type: cell-based; settings: for Ca2+ response (Fig 2c), individual replicate values: hPAR2
T2 sequence (P55085 26-397): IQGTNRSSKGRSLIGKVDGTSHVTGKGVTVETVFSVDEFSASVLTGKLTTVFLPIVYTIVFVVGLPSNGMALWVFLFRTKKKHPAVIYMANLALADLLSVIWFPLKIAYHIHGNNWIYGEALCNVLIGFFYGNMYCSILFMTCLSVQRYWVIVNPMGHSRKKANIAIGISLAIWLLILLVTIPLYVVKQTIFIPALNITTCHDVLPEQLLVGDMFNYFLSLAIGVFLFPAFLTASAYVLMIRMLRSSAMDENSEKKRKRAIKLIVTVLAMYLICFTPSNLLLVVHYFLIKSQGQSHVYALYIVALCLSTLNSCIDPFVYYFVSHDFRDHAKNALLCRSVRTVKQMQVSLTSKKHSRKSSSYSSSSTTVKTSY
Method: Cells were loaded with Fluo-8 NW calcium dye (AAT Bioquest) for 30 min at 37 °C before compounds in Hank’s balanced salt solution (HBSS, ThermoFisher Scientific) with 20 mM HEPES (ThermoFisher Scientific), 0.1% bovine serum albumin (BSA, Sigma) and 0.5% DMSO were added and simultaneously evaluated for changes in intracellular [Ca^2+] using FLIPR TETRA (Molecular Devices) to detect agonism. For each concentration, the difference between the maximum peak Ca^2+ response and baseline response is reported. […] Antagonism experiments were also carried out on 1321N1-PAR2[WT], 1321N1-PAR2[F154A], and 1321N1-PAR2[G157C] as described. Experiments with trypsin in 1321N1-hPAR2 cells were performed in the presence of 1 µM Vorapaxar (Chemtronica) to remove any interference of PAR1 activity. […] Antagonism experiments for CHO-hPAR2 and HT-29 cells were performed in 96-well plates at 30,000 cells/well. Cells were loaded with Fluo-3 AM calcium dye (Sigma-Aldrich) for 60 min at 37 °C in HBSS with 1% FBS, 0.2% pluronic acid, 20 mM HEPES and 2.5 mM probenecid prior to the addition of antagonist. The antagonist was pre-incubated for 60 min at 37 °C followed by the addition of bovine trypsin (30 nM) at EC80. Intracellular [Ca^2+] flux was measured using FLIPR TETRA (Molecular Devices) and the difference between the maximum peak Ca^2+ response and baseline response is reported.
Binding data were analysed using the One site – Fit Ki model in GraphPad Prism 8 (GraphPad Software) to determine binding affinity. Pharmacology in vitro potency data was analysed with a 4-parameter logistic fit using the equation y = Bottom + (Top − Bottom)/[…] where y is the response, x is the 10-logarithm of the drug concentration, Bottom is no response and Top is full response in GraphPad Prism 8 or Genedata Screener (Genedata). pEC50 and pIC50 data are presented as mean ± standard error of the mean (s.e.m.) derived from the number of independent experiments stated. Schild slope analysis was calculated using Graphpad Prism 8 Gaddum/Schild EC50 global fitting (shared model parameters between all data sets) competitive model. […] Schild slope quantifies the shifts in agonist response in the presence of antagonist, a Schild slope of 1 indicates the antagonist is competitive and extra-sum-of-squares F-test (p < 0.05) was used to compare the calculated Schild slope against a hypothetical Schild slope of 1. […] The relative activity was calculated using (EmaxEC50’)/(Emax’EC50) with the Hill slope help constant at 1. EC50’ and Emax’ denote the EC50 and Emax in the absence of allosteric modulator, while EC50 and Emax denote those measured in the presence of allosteric modulator. When the Hill slope = 1, the relative activity plot approaches an asymptote corresponding to the estimate of the γ value.

hPAR2 [4] = biological target: T2, hPAR2; experiment: IP1 assay, agonist mode, 1321N1-hPAR2 cells; assay type: cell-based
hPAR2 [5] = biological target: T2, hPAR2; experiment: β-arrestin-2 recruitment, agonist mode, U2OS-hPAR2 cells; assay type: cell-based
hPAR2 [6] = biological target: T2, hPAR2; experiment: pERK1/2 assay, agonist mode, U2OS-hPAR2 cells; assay type: cell-based
hPAR2 [7] = biological target: T2, hPAR2; experiment: Radiolabelled competition binding assay against [^3H]-GB110 on HEKexpi293F membranes; set-up: expressed in transfected cells
Method: The reaction was then filtered through 0.5% PEI-coated filter plates using a BiomekFX. The filter plate was then dried for 1 h at 50 °C. Scintillation fluid was added to each well, before reading the plate in a Microbeta reader.
Binding data were analysed using the One site – Fit Ki model in GraphPad Prism 8 (GraphPad Software) to determine binding affinity. Pharmacology in vitro potency data was analysed with a 4-parameter logistic fit using the equation y = Bottom + (Top − Bottom)/[…] where y is the response, x is the 10-logarithm of the drug concentration, Bottom is no response and Top is full response in GraphPad Prism 8 or Genedata Screener (Genedata). pEC50 and pIC50 data are presented as mean ± standard error of the mean (s.e.m.) derived from the number of independent experiments stated. Schild slope analysis was calculated using Graphpad Prism 8 Gaddum/Schild EC50 global fitting (shared model parameters between all data sets) competitive model. The most rigorous method for quantifying agonist-antagonist interactions is to globally fit the Gaddum/Shild model to all agonist dose–response curves. Schild slope quantifies the shifts in agonist response in the presence of antagonist, a Schild slope of 1 indicates the antagonist is competitive and extra-sum-of-squares F-test (p < 0.05) was used to compare the calculated Schild slope against a hypothetical Schild slope of 1. […] The relative activity was calculated using (EmaxEC50’)/(Emax’EC50) with the Hill slope help constant at 1. EC50’ and Emax’ denote the EC50 and Emax in the absence of allosteric modulator, while EC50 and Emax denote those measured in the presence of allosteric modulator. When the Hill slope = 1, the relative activity plot approaches an asymptote corresponding to the estimate of the γ value.

[8] = biological target: human protease-activated receptor-2 (PAR2) in membranes of HEKexpi293F cells (human, UniProt P55085 26-397); experiment: radioligand binding; competition against [3H]-GB110 (25 nM) on membranes (30 µg protein per well) of HEKexpi293F cells expressing human PAR2; 2 h at room temperature; filtration; One site - Fit Ki model; settings: one partner purified

T1 sequence (P20231 31-275): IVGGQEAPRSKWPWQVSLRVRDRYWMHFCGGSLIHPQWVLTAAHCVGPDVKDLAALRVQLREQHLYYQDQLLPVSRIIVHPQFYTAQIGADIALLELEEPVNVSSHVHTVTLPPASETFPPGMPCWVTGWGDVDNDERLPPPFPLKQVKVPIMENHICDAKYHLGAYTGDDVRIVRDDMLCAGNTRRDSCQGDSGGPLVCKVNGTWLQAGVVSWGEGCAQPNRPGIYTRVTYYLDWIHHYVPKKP

Molecule: 2f-LIGRLO-NH2 (peptide)
- pKA (equilibrium dissociation constant of the orthosteric ligand) [1]: 6.1 pKA

Molecule: N=C(N)Nc1ccc(C(=O)Oc2ccc([N+](=O)[O-])cc2)cc1 [4-nitrophenyl-4-guanidinobenzoate, reference compound]
- inhibition of tryptase activity [2]: completely

Molecule: CC[C@H](C)[C@H](NC(=O)[C@H](CC(C)C)NC(=O)[C@@H](N)CO)C(=O)NCC(=O)N[C@@H](CCCCN)C(=O)N[C@H](C(N)=O)C(C)C [SLIGKV-NH2, reference compound] (H-SLIGKV-NH2)
- EC50 (hPAR2 [3]): 1.26 µM
- Ca2+ response (Fig 2c), individual replicate values (hPAR2 [3]; [compound],M -3.69897): 103.767 and 118.778 and 97.8658 and 87.8393
- Ca2+ response (Fig 2c), individual replicate values (hPAR2 [3]; [compound],M -4.17609): 56.3274 and 105.715 and 98.496 and 100.501
- Ca2+ response (Fig 2c), individual replicate values (hPAR2 [3]; [compound],M -4.65321): 93.626 and 84.0006 and 100.043 and 97.9804
- Ca2+ response (Fig 2c), individual replicate values (hPAR2 [3]; [compound],M -5.13033): 68.0728 and 71.1667 and 73.1719 and 72.2553
- Ca2+ response (Fig 2c), individual replicate values (hPAR2 [3]; [compound],M -5.60746): 41.6601 and 53.119 and 63.0309 and 60.338
- Ca2+ response (Fig 2c), individual replicate values (hPAR2 [3]; [compound],M -6.08458): 28.1959 and 44.9832 and 36.0453 and 35.9307
- Ca2+ response (Fig 2c), individual replicate values (hPAR2 [3]; [compound],M -6.5617): 11.2941 and 18.1695 and 18.1121 and 22.4665
- Ca2+ response (Fig 2c), individual replicate values (hPAR2 [3]; [compound],M -7.03882): 4.705 and 12.8411 and -0.8522 and 3.559
- Ca2+ response (Fig 2c), individual replicate values (hPAR2 [3]; [compound],M -7.51594): -1.139 and 5.679 and 1.6687 and -1.54
- Ca2+ response (Fig 2c), individual replicate values (hPAR2 [3]; [compound],M -7.99306): -2.17 and 3.044 and 0.4082 and -4.863
- EC50 (hPAR2 [4]): 25.1 µM
- EC50 (hPAR2 [5]): 12.6 µM
- agonist response (Fig 2f), individual replicate values (hPAR2 [5]; [compound],M -4.04576): 97.3808 and 92.2809 and 86.7862 and 73.31 and 95.9148 and 84.3134
- agonist response (Fig 2f), individual replicate values (hPAR2 [5]; [compound],M -4.52288): 92.9579 and 90.0884 and 64.3276 and 56.5062 and 77.8703 and 74.4284
- agonist response (Fig 2f), individual replicate values (hPAR2 [5]; [compound],M -5): 55.0604 and 54.5545 and 55.8646 and 38.6159 and 58.5041 and 56.712
- agonist response (Fig 2f), individual replicate values (hPAR2 [5]; [compound],M -5.47712): 26.8191 and 21.9568 and 32.045 and 20.5609 and 38.941 and 38.2123
- agonist response (Fig 2f), individual replicate values (hPAR2 [5]; [compound],M -5.95424): 3.59 and 16.887 and 24.5009 and 9.51 and 14.8748 and 18.3177
- agonist response (Fig 2f), individual replicate values (hPAR2 [5]; [compound],M -6.43136): -3.351 and 12.8282 and 7.2581 and 5.779 and 4.6 and 10.8974
- agonist response (Fig 2f), individual replicate values (hPAR2 [5]; [compound],M -6.90849): 4.102 and 7.728 and 1.445 and -0.0221 and 3.388 and 8.399
- agonist response (Fig 2f), individual replicate values (hPAR2 [5]; [compound],M -7.38561): 1.29 and 11.1269 and 3.313 and 3.3558 and 1.549 and 0.5881
- agonist response (Fig 2f), individual replicate values (hPAR2 [5]; [compound],M -7.86273): -1.101 and 4.782 and 4.705 and 0.01875 and -2.103 and 4.2334
- agonist response (Fig 2f), individual replicate values (hPAR2 [5]; [compound],M -8.33985): -5.551 and 2.218 and -0.6869 and -0.9848 and 0.2659 and 2.337
- EC50 (hPAR2 [6]): 10 µM
- agonist response (Fig 2e), individual replicate values (hPAR2 [6]; [compound],M -4.04576): 99.6308 and 91.4672 and 59.9255 and 93.3534 and 82.1422 and 106.727 and 95.3302 and 107.361
- agonist response (Fig 2e), individual replicate values (hPAR2 [6]; [compound],M -4.52288): 97.6379 and 75.0545 and 42.279 and 78.3436 and 72.4641 and 77.8082 and 83.5277 and 91.4836
- agonist response (Fig 2e), individual replicate values (hPAR2 [6]; [compound],M -5): 31.7126 and 38.7964 and 29.9003 and 52.5593 and 35.7079 and 56.5471 and 40.6895 and 78.4826
- agonist response (Fig 2e), individual replicate values (hPAR2 [6]; [compound],M -5.47712): -6.206 and 24.6437 and 9.489 and 50.4555 and 3.733 and 21.3761 and 7.93 and 32.2657
- agonist response (Fig 2e), individual replicate values (hPAR2 [6]; [compound],M -5.95424): -12.6824 and 18.9444 and 7.502 and 22.8061 and -1.381 and 9.052 and -3.256 and 12.5644
- agonist response (Fig 2e), individual replicate values (hPAR2 [6]; [compound],M -6.43136): -23.75 and 16.3682 and -5.093 and 16.2671 and -4.436 and 12.7209 and -3.872 and 14.813
- agonist response (Fig 2e), individual replicate values (hPAR2 [6]; [compound],M -6.90849): 15.5205 and 19.768 and 3.339 and 15.6565 and 2.966 and 12.1455 and -0.4138 and 11.0577
- agonist response (Fig 2e), individual replicate values (hPAR2 [6]; [compound],M -7.38561): -7.931 and 10.0627 and -5.815 and 6.181 and -11.0844 and 9.039 and -0.4366 and 14.6989
- agonist response (Fig 2e), individual replicate values (hPAR2 [6]; [compound],M -7.86273): -16.2411 and 11.2751 and -1.735 and 6.359 and -8.732 and 10.0488 and 1.766 and 13.489
- agonist response (Fig 2e), individual replicate values (hPAR2 [6]; [compound],M -8.33985): -5.583 and 13.904 and -4.7322 and 9.728 and -8.195 and 13.5647 and -0.3681 and 7.371
- Ki (hPAR2 [7]): 0.468 µM
- remaining binding at […] (hPAR2 [7]; 2 h, read-out: specific binding of [^3H]-GB110, Fig 2b source data): 100% and 94.6%

B1: SLIGKV-NH2 (peptide)
peptide: SLIGKV-NH2
notes: also called human tethered ligand peptide; source: synthetic peptide, custom synthesised by ThermoFisher Scientific
- pKi [8]: 6.33 pKi
